From patent US12532889B2, “Herbicidal compositions comprising glufosinate” (BASF SE, priority 2023, dated 2026)
Several values for one entry are separate records, joined by “and”; a condition that tells them apart may be missing. Equal entries are not always repeated.

Key:
Experiment in all cases: Post-emergence application in field trials (Example A)
Assay type in all cases: in vivo
GLXMA (Glycine max) = conditions: 21 DAT; B-6 252 g ai/ha; growth stage 13; height 5-10 cm
Description: (§1) In the examples below, using the method of S. R. Colby (1967) “Calculating synergistic and antagonistic responses of herbicide combinations”, Weeds 15, p. 22ff., the value E, which is expected if the activity of the individual active compounds is only additive, was calculated:
(§2) [formula] • where • X=percent activity using active herbicide A at an application rate a; • Y=percent activity using active herbicide B (e.g. glufosinate) at an application rate b; • E=expected activity (in %) by A+B at application rates a+b.
(§3) If the value found experimentally is higher than the value E calculated according to Colby, a synergistic effect is present.
(§4) On field test sites, natural weed infestation or seeded weeds were treated post-emergence of the weeds.
(§5) In the field trials, the weeds were treated as indicated below.
(§6) In the following experiments, the herbicidal activity for the individual herbicidal compositions (solo and mixture applications) was assessed at the indicated days after treatment (DAT). The assessments for the damage on undesired weeds caused by the composition was carried out using a scale from 0 to 100%, compared to the untreated control plants. Here, 0 means no damage and 100 means complete destruction of the plants.

[1] = system: COMDI (Commelina diffusa); conditions: Table 5.3; COMDI growth stage 76-77; A-1 25, B-6 252 g ai/ha; 28 DAT; water 300 l/ha
Description: as §1, §2, §3, §4, §5, §6

[2] = system: HORVW (Hordeum vulgare (winter barley))
Description: as §1, §2, §3, §4, §5, §6

[3] = system: ECHCG (Echinocloa crus-galli)
Description: as §1, §2, §3, §4, §5, §6

[4] = system: PASSC (Paspalum scrobiculatum); conditions: Table 5.2, A-1 25, B-6 252 g ai/ha, 21 DAT, water 450 l/ha
Description: as §1, §2, §3, §4, §5, §6

ZEAMX (Zea mays) = system: ZEAMX (Zea mays)
Description: as §1, §2, §3, §4, §5, §6

[5] = system: DIGSA (Digitaria sanguinalis); conditions: for % Herbicidal activity: growth stage 22
Description: as §1, §2, §3, §4, §5, §6

[6] = system: LOLMU (Lolium multiflorum); conditions: for % Herbicidal activity: B-6 252 g ai/ha, growth stage 22-25, height 20-25 cm; for % herbicidal activity: Table 6.1, LOLMU growth stage 22-25, height 20-25 cm, 200 l/ha water
Description: as §1, §2, §3, §4, §5, §6

[7] = 21 DAT, B-6 252 g ai/ha, growth stage 23-29, height 20-25 cm
[8] = 21 DAT, B-6 150 g ai/ha, growth stage 23-30, height 15-20 cm
[9] = 21 DAT, B-6 252 g ai/ha, growth stage 23-30, height 15-20 cm
[10] = 42 DAT, B-6 252 g ai/ha, growth stage 15-16, height 27-33 cm

CP(=O)(O)CC[C@H](N)C(=O)O.N [B-6, glufosinate-P-ammonium]
% herbicidal activity (GLXMA (Glycine max)): 70% | % herbicidal activity [1]: 39% | % Herbicidal activity ([2]; 7 DAT, B-6 150 g ai/ha, growth stage 23-29, height 20-25 cm): 0% | % Herbicidal activity ([2]; 7 DAT, B-6 252 g ai/ha, growth stage 23-29, height 20-25 cm): 50% and 30% | % Herbicidal activity ([2]; 21 DAT, B-6 150 g ai/ha, growth stage 23-29, height 20-25 cm): 0% | % Herbicidal activity [2, 7]: 70% | % herbicidal activity [2, 7]: 30% and 40% | % herbicidal activity ([2]; Table 6.1, HORVW growth stage 23-29, height 20-25 cm, A-1 12.5, B-6 150 g ai/ha, 7 DAT, 200 l/ha water): 0% | % herbicidal activity ([2]; Table 6.1, HORVW growth stage 23-29, height 20-25 cm, A-1 12.5, B-6 252 g ai/ha, 7 DAT, 200 l/ha water): 50% | % herbicidal activity ([2]; Table 6.1, HORVW growth stage 23-29, height 20-25 cm, A-1 18, B-6 150 g ai/ha, 7 DAT, 200 l/ha water): 0% | % herbicidal activity ([2]; Table 6.1, HORVW growth stage 23-29, height 20-25 cm, A-1 18, B-6 252 g ai/ha, 7 DAT, 200 l/ha water): 40% | % Herbicidal activity ([3]; 7 DAT, B-6 252 g ai/ha, growth stage 23-30, height 15-20 cm): 60% | % Herbicidal activity [3, 8]: 40% | % herbicidal activity [3, 8]: 40% | % Herbicidal activity [3, 9]: 70% | % herbicidal activity [3, 9]: 70% | % Herbicidal activity ([3]; 28 DAT, B-6 252 g ai/ha, growth stage 23-30, height 15-20 cm): 70% and 60% | % herbicidal activity ([3]; Table 6.1, ECHCG growth stage 23-30, height 15-20 cm, A-1 12.5, B-6 150 g ai/ha, 7 DAT, 200 l/ha water): 50% | % herbicidal activity ([3]; Table 6.1, ECHCG growth stage 23-30, height 15-20 cm, A-1 12.5, B-6 252 g ai/ha, 7 DAT, 200 l/ha water): 60% | % herbicidal activity ([3]; Table 6.1, ECHCG growth stage 23-30, height 15-20 cm, A-1 18, B-6 150 g ai/ha, 7 DAT, 200 l/ha water): 50% | % herbicidal activity ([3]; Table 6.1, ECHCG growth stage 23-30, height 15-20 cm, A-1 18, B-6 252 g ai/ha, 7 DAT, 200 l/ha water): 60% | % herbicidal activity [4]: 27% | % Herbicidal activity (ZEAMX (Zea mays); 21 DAT, B-6 252 g ai/ha, growth stage 15-16, height 27-33 cm): 65% | % herbicidal activity (ZEAMX (Zea mays); 21 DAT, B-6 252 g ai/ha, growth stage 15-16, height 50-60 cm): 30% | % Herbicidal activity (ZEAMX (Zea mays); 28 DAT, B-6 252 g ai/ha, growth stage 15-16, height 50-60 cm): 75% | % Herbicidal activity (ZEAMX (Zea mays); [10]): 45% and 50% | % herbicidal activity (ZEAMX (Zea mays); [10]): 45% | % herbicidal activity (ZEAMX (Zea mays); Table 6.1, ZEAMX growth stage 15-16, height 50-60 cm, A-1 18, B-6 252 g ai/ha, 7 DAT, 200 l/ha water): 65% | % Herbicidal activity ([5]; 7 DAT, B-6 252 g ai/ha, height 10-15 cm): 75% | % herbicidal activity ([5]; 21 DAT, B-6 252 g ai/ha, growth stage 21-22, height 10-15 cm): 20% | % Herbicidal activity ([5]; 21 DAT, B-6 252 g ai/ha, height 10-15 cm): 80% | % Herbicidal activity ([5]; 42 DAT, B-6 252 g ai/ha, height 10-15 cm): 50% | % herbicidal activity ([5]; Table 6.1, DIGSA growth stage 21-22, height 10-15 cm, A-1 18, B-6 252 g ai/ha, 7 DAT, 200 l/ha water): 30% | % Herbicidal activity ([6]; 7 DAT): 60% | % Herbicidal activity ([6]; 28 DAT): 40% | % herbicidal activity ([6]; A-1 12.5, B-6 252 g ai/ha, 7 DAT): 60% | % herbicidal activity ([6]; A-1 18, B-6 252 g ai/ha, 7 DAT): 60%
